# Experimental data reported in patent US6573275B1, “Bicyclic amines” (Syngenta Limited, priority 1995, dated 2003).
# Test system: peach aphid (Myzus persicae)
# Test: Insecticidal test against peach aphid, infested Chinese cabbage leaves sprayed
# Format: in vivo
# Conditions: peach aphid (Myzus persicae) on Chinese cabbage leaves, sprayed with 500 ppm composition unless otherwise stated, mortality assessed after 3 days
# Description: This Example illustrates the insecticidal properties of the compounds of Formula I. The activity of the compounds of Formula I was determined using a variety of pests. The pests were treated with a liquid composition containing 500 parts per million (ppm) by weight of the compound unless otherwise stated. The compositions were made by dissolving the compound in acetone and ethanol (50:50) mixture and diluting the solutions with water containing 0.05% by weight of a wetting agent sold under the trade name “SYNPERONIC” NP8 until the liquid composition contained the required concentration of the compound. “SYNPERONIC” is a Registered Trade Mark.
# The test procedure adopted with regard to each pest was basically the same and comprised supporting a number of the pests on a medium which was usually a substrate, a host plant or a foodstuff on which the pests feed, and treating either or both the medium and the pests with the compositions. The mortality of the pests was then assessed at periods usually varying from two to five days after the treatment.
# In this test Chinese cabbage leaves were infested with aphids, the infested leaves were sprayed with the test composition, and the mortality assessed after 3 days.
row,SMILES,Score (grading of mortality)
1,"CN1C2CCC1CC(C#N)(c1cnc(Cl)c(Cl)c1)C2 (stereo not drawn) [Compound 55, exo-3-(5,6-dichloropyrid-3-yl)-endo-3-cyano-8-methyl-8-azabicyclo[3.2.1]octane]",A (A indicates 80-100% mortality)
2,C#CCN1C2CCC1CC(C#N)(c1cccnc1)C2 (centres unmarked) [Compound 56],A (A indicates 80-100% mortality)
3,CN1C2CCC1CC(C#N)(c1cccnc1)C2 (centres unmarked) [Compound 57],A (A indicates 80-100% mortality)
4,CC=CCN1C2CCC1CC(C#N)(c1cccnc1)C2 (centres unmarked) [Compound 58],C (C indicates less than 40% mortality)
5,N#CC1(c2cc(F)cc(F)c2)CC2CCC(C1)N2c1ccc([N+](=O)[O-])cc1 (centres unmarked) [Compound 59],A (A indicates 80-100% mortality)
6,"CN1C2CCC1CC(C#N)(c1cncc(Cl)c1)C2 (stereo not drawn) [Compound 60, exo-3-(5-chloropyrid-3-yl)-endo-3-cyano-8-methyl-8-azabicyclo[3.2.1]octane]",A (A indicates 80-100% mortality)
7,N#CC1(c2cccnc2)CC2CCC(C1)N2c1ccccc1 (centres unmarked) [Compound 61],A (A indicates 80-100% mortality)
8,"CN1C2CCC1CC(C#N)(c1cnccn1)C2 (stereo not drawn) [Compound 62, exo-3-(pyrazin-2-yl)-endo-3-cyano-8-methyl-8-azabicyclo[3.2.1]octane]",A (A indicates 80-100% mortality)
9,"CN1C2CCC1CC(C#N)(c1cc(Cl)nc(Cl)n1)C2 (stereo not drawn) [Compound 63, exo-3-(2,6-dichloropyrimid-4-yl)-endo-3-cyano-8-methyl-8-azabicyclo[3.2.1]octane]",C (C indicates less than 40% mortality)
10,N#CC1(c2cncc(Cl)c2)CC2CCC(C1)N2CCF (centres unmarked) [Compound 64],A (A indicates 80-100% mortality)
11,"CN1C2CCC1CC(C#N)(c1cc(Cl)nc(Cl)c1)C2 (stereo not drawn) [Compound 65, exo-3-(2,6-dichloropyrid-4-yl)-endo-3-cyano-8-methyl-8-azabicyclo[3.2.1]octane]",C (C indicates less than 40% mortality)
12,"CN1[C@@H]2CC[C@H]1C[C@](C#N)(c1cc(Cl)nc(NN)c1)C2 [Compound 66, exo-3-(2-chloro-6-hydrazinopyrid-4-yl)-endo-3-cyano-8-methyl-8-azabicyclo[3.2.1]octane]",C (C indicates less than 40% mortality)
13,"CN1C2CCC1CC(C#N)(c1ccncc1)C2 (stereo not drawn) [Compound 67, exo-3-(pyrid-4-yl)-endo-3-cyano-8-methyl-8-azabicyclo[3.2.1]octane]",A (A indicates 80-100% mortality)
14,"CN1C2CCC1CC(C#N)(c1cncc(Br)c1)C2 (stereo not drawn) [Compound 68, exo-3-(5-bromopyrid-3-yl)-endo-3-cyano-8-methyl-8-azabicyclo[3.2.1]octane]",A (A indicates 80-100% mortality)
15,"C=COC(=O)N1[C@@H]2CC[C@H]1C[C@](C#N)(c1cncc(Cl)c1)C2 [Compound 69, exo-3-(5-chloropyrid-3-yl)-endo-3-cyano-8-(vinyloxycarbonyl)-8-azabicyclo[3.2.1]octane]",A (A indicates 80-100% mortality)
16,"N#CC1(c2cncc(Cl)c2)CC2CCC(C1)N2 (stereo not drawn) [Compound 70, exo-3-(5-chloropyrid-3-yl)-endo-3-cyano-8-azabicyclo[3.2.1]octane]",A (A indicates 80-100% mortality)
17,CN1C2CCC1CC(C#N)(c1cccc(Cl)n1)C2 (centres unmarked) [Compound 71],A (A indicates 80-100% mortality)
18,"N#C[C@@]1(c2cncc(Cl)c2)C[C@H]2CC[C@@H](C1)N2CC(F)(F)F [Compound 72, exo-3-(5-chloropyrid-3-yl)-endo-3-cyano-8-(2,2,2-trifluoroethyl)-8-azabicyclo[3.2.1]octane]",A (A indicates 80-100% mortality)
19,N#CC1(c2cc(F)cc(F)c2)CC2CCC(C1)N2c1ccccn1 (centres unmarked) [Compound 73],C (C indicates less than 40% mortality)
20,N#CC1(c2cncc(Cl)c2)CC2CCC(C1)N2c1ccccc1 (centres unmarked) [Compound 74],A (A indicates 80-100% mortality)
21,C#CCN1C2CCC1CC(C#N)(c1cncc(Cl)c1)C2 (centres unmarked) [Compound 75],A (A indicates 80-100% mortality)
22,"C=CCN1C2CCC1CC(C#N)(c1cncc(Cl)c1)C2 (stereo not drawn) [Compound 76, exo-3-(5-chloropyrid-3-yl)-endo-3-cyano-8-allyl-8-azabicyclo[3.2.1]octane]",A (A indicates 80-100% mortality)
23,"COc1cncc(C2(C#N)CC3CCC(C2)N3C)c1 (stereo not drawn) [Compound 77, exo-3-(5-methoxypyrid-3-yl)-endo-3-cyano-8-methyl-8-azabicyclo[3.2.1]octane]",A (A indicates 80-100% mortality)
24,CCN1C2CCC1CC(C#N)(c1cncc(Cl)c1)C2 (centres unmarked) [Compound 78],A (A indicates 80-100% mortality)
25,CCCCN1C2CCC1CC(C#N)(c1cncc(Cl)c1)C2 (centres unmarked) [Compound 79],A (A indicates 80-100% mortality)

row,SMILES,Score (grading of mortality)
1,COc1cncc(C2(C#N)CC3CCC(C2)N3C)c1 (centres unmarked) [Compound 80],A (A indicates 80-100% mortality)
2,"CCCCCCN1C2CCC1CC(C#N)(c1cncc(Cl)c1)C2 (stereo not drawn) [Compound 81, exo-3-(5-chloropyrid-3-yl)-endo-3-cyano-8-(n-hexyl)-8-azabicyclo[3.2.1]octane]",A (A indicates 80-100% mortality)
3,N#CC1(c2cncc(Cl)c2)CC2CCC(C1)N2C(=O)Oc1ccccc1 (centres unmarked) [Compound 82],A (A indicates 80-100% mortality)
4,N#CC1(c2cncc(Cl)c2)CC2CCC(C1)N2C(=O)OCC(Cl)(Cl)Cl (centres unmarked) [Compound 83],A (A indicates 80-100% mortality)
5,CCOC(=O)N1C2CCC1CC(C#N)(c1cncc(Cl)c1)C2 (centres unmarked) [Compound 84],A (A indicates 80-100% mortality)
6,N#CC1(c2cncc(Cl)c2)CC2CCC(C1)N2C(=O)OCC1c2ccccc2-c2ccccc21 (centres unmarked) [Compound 85],A (A indicates 80-100% mortality)
7,CCOC(=O)CN1C2CCC1CC(C#N)(c1cncc(Cl)c1)C2 (centres unmarked) [Compound 86],A (A indicates 80-100% mortality)
8,"CC(C)N1C2CCC1CC(C#N)(c1cncc(Cl)c1)C2 (stereo not drawn) [Compound 87, exo-3-(5-chloropyrid-3-yl)-endo-3-cyano-8-isopropyl-8-azabicyclo[3.2.1]octane]",A (A indicates 80-100% mortality)
9,"N#CC1(c2cncc(Cl)c2)CC2CCC(C1)N2C=CC(=O)C(F)(F)F (stereo not drawn) [Compound 88, exo-3-(5-chloropyrid-3-yl)-endo-3-cyano-8-(3-oxo-4,4,4-trifluorobut-1-en-1-yl)-8-azabicyclo[3.2.1]octane]",A (A indicates 80-100% mortality)
10,CC(OC(=O)N1C2CCC1CC(C#N)(c1cncc(Cl)c1)C2)C(Cl)(Cl)Cl (centres unmarked) [Compound 89],C (C indicates less than 40% mortality)
11,C=CCOC(=O)N1C2CCC1CC(C#N)(c1cncc(Cl)c1)C2 (centres unmarked) [Compound 90],A (A indicates 80-100% mortality)
12,N#CC1(c2cncc(Cl)c2)CC2CCC(C1)N2C(=O)OCc1ccccc1 (centres unmarked) [Compound 91],A (A indicates 80-100% mortality)
13,N#CC1(c2cncc(Cl)c2)CC2CCC(C1)N2C(=O)OCCCl (centres unmarked) [Compound 92],A (A indicates 80-100% mortality)
14,"N#CC1(c2cncc(Cl)c2)CC2CCC(C1)N2Cc1c(F)c(F)c(F)c(F)c1F (stereo not drawn) [Compound 93, exo-3-(5-chloropyrid-3-yl)-endo-3-cyano-8-(pentafluorophenylmethyl)-8-azabicyclo[3.2.1]octane]",A (A indicates 80-100% mortality)
15,N#CC1(c2cncc(Cl)c2)CC2CCC(C1)N2c1ccc([N+](=O)[O-])cc1 (centres unmarked) [Compound 94],C (C indicates less than 40% mortality)
16,"CC(=O)N1C2CCC1CC(C#N)(c1cncc(Cl)c1)C2 (stereo not drawn) [Compound 95, exo-3-(5-chloropyrid-3-yl)-endo-3-cyano-8-acetyl-8-azabicyclo[3.2.1]octane]",A (A indicates 80-100% mortality)
17,N#CC1(c2cncc(Cl)c2)CC2CCC(C1)N2C(=O)C(F)(F)F (centres unmarked) [Compound 96],A (A indicates 80-100% mortality)
18,N#CC1(c2cncc(Cl)c2)CC2CCC(C1)N2C(=O)c1ccc(Cl)cc1 (centres unmarked) [Compound 97],C (C indicates less than 40% mortality)
19,N#CC1(c2cncc(Cl)c2)CC2CCC(C1)N2C(=O)c1ccc(F)cc1 (centres unmarked) [Compound 98],A (A indicates 80-100% mortality)
20,N#CC1(c2cncc(Cl)c2)CC2CCC(C1)N2CCCF (centres unmarked) [Compound 99],A (A indicates 80-100% mortality)
21,N#CC1(c2cncc(Cl)c2)CC2CCC(C1)N2Cc1ccc(C(F)(F)F)cc1C(F)(F)F (centres unmarked) [Compound 100],A (A indicates 80-100% mortality)
22,N#CC1(c2cncc(Cl)c2)CC2CCC(C1)N2Cc1ccc(C(=O)O)cc1 (centres unmarked) [Compound 101],A (A indicates 80-100% mortality)
23,CC=COc1cncc(C2(C#N)CC3CCC(C2)N3C)c1 (centres unmarked) [Compound 102],A (A indicates 80-100% mortality)
24,N#CC1(c2cncc(Cl)c2)CC2CCC(C1)N2Cc1cccc(F)c1F (centres unmarked) [Compound 103],A (A indicates 80-100% mortality)
25,"N#CC1(c2cncc(Cl)c2)CC2CCC(C1)N2CCc1ccccc1 (stereo not drawn) [Compound 104, exo-3-(5-chloropyrid-3-yl)-endo-3-cyano-8-(2-phenylethyl)-8-azabicyclo[3.2.1]octane]",A (A indicates 80-100% mortality)
